{"source": "patent US5573922A", "about": "“Immunological detection method for triazines” (Boehringer Mannheim GmbH, priority 1993, dated 1996)", "key": {"[1]": {"tested_on": "antiserum S 4612 (sheep antiserum against triazine)", "test": "Competitive ELISA, sheep triazine antiserum with homologous POD conjugate atra(terbutyl-6ah)-OSu-POD", "assay_type": "binding", "details": "30 mU/ml; for lower detection limit (ng/l) / lower detection limit: concentration at which signal is 80% of maximum signal; for cross reaction (%): relative to terbutylazine (quotient of hapten concentrations at half maximum signal)", "protocol": "(§1) Microtitre plates (Maxisorp F96,Nunc Co. Order No. 4-42404) are coated with antibodies against the Fc part of sheep IgG which have been obtained by immunosorptive purification of the IgG fraction from donkey antiserum. The donkey antibody is dissolved in the coating buffer at a concentration of 10 µg/ml protein and 100 μl of this solution is pipetted into each well of the microtitre plate. After incubating for 1 hour at room temperature while shaking, the solution is discarded and the plate is washed three times with washing solution.\n(§2) Sheep antiserum against triazine is diluted 1:50,000 with incubation buffer. Each well of the microtitre plate is coated with 100 μl of the diluted solution. During the incubation period (1 hour, conditions as above) the IgG molecules from the sheep serum bind to the donkey antibodies bound to the wall. They are subsequently washed as above.\n(§3) The wells of the microtitre plate which were precoated as previously described, are filled with these solutions (100 μl in each case), incubated for 1 hour and subsequently washed as described.\n(§4) The free hapten molecules compete with the hapten-POD conjugate for the limited amount of hapten-specific antibodies on the wall of the wells. The less conjugate is bound the more free hapten is present in the solution and the better the hapten is recognized by the antibodies.\n(§5) Every well is filled with 100 μl substrate solution and incubated while shaking until the colour development in the samples without hapten appears subjectively to be high enough. Then the absorbance in all wells is determined as a differential measurement at the wavelengths 405/492 nm.\n(§6) In the graph of the measured signal as a function of the hapten concentration used, the \"relative affinity\", i.e. the hapten concentration whose measured signal is half the size of the maximum signal (at a hapten concentration of 0), is determined for each triazine compound. In this process a linear interpolation is made between selected measurement points on the curve. This gives the cross-reaction of the triazines in relation to terbutylazine as the quotient [formula]\n(§7) The \"lower limit of detection\" is determined in an analogous manner for each triazine compound as the concentration at which the measured signal is 80% of the maximum signal.\nIn a second experiment the cross reaction and the lower limit of detection for each of the above-mentioned triazines is determined in an analogous manner using the homologous conjugate atra(terbutyl-6ah)-OSu-POD. In this case the POD concentration is 30 mU/ml. The highest hapten concentrations are 10,000 ng/l for terbutylazine and 100,000 ng/l for all triazines.\nEight further hapten concentrations are prepared by serial dilution of these solutions in a ratio of 1:2 and a blank value without triazine is determined in each case."}, "[2]": {"tested_on": "antiserum S 4612 (sheep antiserum against triazine)", "test": "Competitive ELISA, sheep triazine antiserum with heterologous POD conjugate atra(deethyl-4-ED)-SATP-PODp(MH)", "assay_type": "binding", "details": "50 mU/ml; for lower detection limit: concentration at which signal is 80% of maximum signal; for cross reaction (%): relative to terbutylazine (quotient of hapten concentrations at half maximum signal)", "protocol": "10 sheep are immunized with triazine immunogen according to example 1 in Freund's adjuvant. The dose is […] per animal. The immunizations are repeated over six months or longer, each at intervals of 4 weeks. Antiserum samples are taken from all animals once per month and examined for the presence of triazine antibodies. For this purpose a series of terbutylazine standards are measured in a competitive ELISA using the heterologous POD conjugate atra(deethyl-4-ED)-SATP-POD(MH) according to example 3. The procedure for this measurement is described in detail in example 5.\nas §1, §2\nA series of solutions is prepared which contain terbutylazine at concentrations of 1000/500/250/125/62.5/31/16/8/4/0 ng/l as well as the conjugate atra(deethyl-4-ED)-SATP-PODp(MH) according to the invention at a standard concentration of 50 mU/ml in the incubation buffer.\nDilution series of other triazines are prepared in a similar manner with maximum concentrations of […] (atrazine, cyanazine and desethylterbutylazine), 10,000 ng/l (propazine, simazine, desethylatrazine) and 100,000 ng/l (desisopropylatrazine) and dilution steps of 1:2 which also contain the said hapten-POD conjugate.\nas §3, §4, §5, §6, §7"}}}
{"compound": "CCNc1nc(Cl)nc(NC(C)C)n1", "note": "[atrazine]", "values": [{"measurement": "lower detection limit (ng/l)", "setting": "[1]", "value": "1,600 ng/l"}, {"measurement": "cross reaction (%)", "setting": "[1]", "value": 4, "unit": "%"}, {"measurement": "lower detection limit", "setting": "[2]", "value": 17, "unit": "ng/L"}, {"measurement": "cross reaction (%)", "setting": "[2]", "value": 73, "unit": "%"}]}
{"compound": "CCNc1nc(Cl)nc(NC(C)(C)C#N)n1", "note": "[cyanazine]", "values": [{"measurement": "lower detection limit", "setting": "[1]", "value": 310, "unit": "ng/L"}, {"measurement": "cross reaction (%)", "setting": "[1]", "value": 11, "unit": "%"}, {"measurement": "lower detection limit", "setting": "[2]", "value": 10, "unit": "ng/L"}, {"measurement": "cross reaction (%)", "setting": "[2]", "value": 102, "unit": "%"}]}
{"compound": "CC(C)Nc1nc(N)nc(Cl)n1", "note": "[desethylatrazine]", "values": [{"measurement": "lower detection limit (ng/l)", "setting": "[1]", "value": "9,500 ng/l"}, {"measurement": "cross reaction (%)", "setting": "[1]", "value": "< 0.3", "unit": "%"}, {"measurement": "lower detection limit", "setting": "[2]", "value": 90, "unit": "ng/L"}, {"measurement": "cross reaction (%)", "setting": "[2]", "value": 7, "unit": "%"}]}
{"compound": "CC(C)(C)Nc1nc(N)nc(Cl)n1", "note": "[desethylterbutylazine]", "values": [{"measurement": "lower detection limit", "setting": "[1]", "value": 430, "unit": "ng/L"}, {"measurement": "cross reaction (%)", "setting": "[1]", "value": 9, "unit": "%"}, {"measurement": "lower detection limit", "setting": "[2]", "value": 10, "unit": "ng/L"}, {"measurement": "cross reaction (%)", "setting": "[2]", "value": 102, "unit": "%"}]}
{"compound": "CC(C)Nc1nc(Cl)nc(NC(C)C)n1", "note": "[propazine]", "values": [{"measurement": "lower detection limit", "setting": "[1]", "value": 620, "unit": "ng/L"}, {"measurement": "cross reaction (%)", "setting": "[1]", "value": 8, "unit": "%"}, {"measurement": "lower detection limit", "setting": "[2]", "value": 24, "unit": "ng/L"}, {"measurement": "cross reaction (%)", "setting": "[2]", "value": 26, "unit": "%"}]}
{"compound": "CCNc1nc(Cl)nc(NCC)n1", "note": "[simazine]", "values": [{"measurement": "lower detection limit", "setting": "[1]", "value": 4.100, "unit": "ng/L"}, {"measurement": "cross reaction (%)", "setting": "[1]", "value": 0.9, "unit": "%"}, {"measurement": "lower detection limit", "setting": "[2]", "value": 60, "unit": "ng/L"}, {"measurement": "cross reaction (%)", "setting": "[2]", "value": 10, "unit": "%"}]}
{"compound": "CCNc1nc(Cl)nc(NC(C)(C)C)n1", "note": "[terbutylazine]", "values": [{"measurement": "lower detection limit", "setting": "[1]", "value": 100, "unit": "ng/L"}, {"measurement": "cross reaction (%)", "setting": "[1]", "value": 100, "unit": "%"}, {"measurement": "lower detection limit", "setting": "[2]", "value": 12, "unit": "ng/L"}, {"measurement": "cross reaction (%)", "setting": "[2]", "value": 100, "unit": "%"}]}
